Reference: US12692254B2, “Benzimidazole inhibitors of PAD enzymes” (BRISTOL-MYERS SQUIBB COMPANY, priority 2018, dated 2026)

Molecular target: human PAD4 (hPAD4) (Homo sapiens, UniProt Q9UM07)
Assay: RFMS human PAD4 functional assay (rapid-fire mass spectrum)
Type: biochemical
Settings: 5 nM hPAD4 enzyme, 250 μM BAEE, 50 μM Calcium; 30 min preincubation, 90 min reaction at 37° C.
How it was run: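 PAD4 (10 nM) preincubated 30 min with compound (top final 50 μM), then BAEE substrate added in pH 7.5 HEPES buffer with DTT, 50 μM calcium, TPEN; 90 min at 37° C. After TCA quench, citrulline derivatized with phenyl glyoxal (4 mM final, 30 min, 37° C) and quantified by RapidFire MS against internal standard.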

human PAD4 (hPAD4), sequence (Q9UM07 whole entry): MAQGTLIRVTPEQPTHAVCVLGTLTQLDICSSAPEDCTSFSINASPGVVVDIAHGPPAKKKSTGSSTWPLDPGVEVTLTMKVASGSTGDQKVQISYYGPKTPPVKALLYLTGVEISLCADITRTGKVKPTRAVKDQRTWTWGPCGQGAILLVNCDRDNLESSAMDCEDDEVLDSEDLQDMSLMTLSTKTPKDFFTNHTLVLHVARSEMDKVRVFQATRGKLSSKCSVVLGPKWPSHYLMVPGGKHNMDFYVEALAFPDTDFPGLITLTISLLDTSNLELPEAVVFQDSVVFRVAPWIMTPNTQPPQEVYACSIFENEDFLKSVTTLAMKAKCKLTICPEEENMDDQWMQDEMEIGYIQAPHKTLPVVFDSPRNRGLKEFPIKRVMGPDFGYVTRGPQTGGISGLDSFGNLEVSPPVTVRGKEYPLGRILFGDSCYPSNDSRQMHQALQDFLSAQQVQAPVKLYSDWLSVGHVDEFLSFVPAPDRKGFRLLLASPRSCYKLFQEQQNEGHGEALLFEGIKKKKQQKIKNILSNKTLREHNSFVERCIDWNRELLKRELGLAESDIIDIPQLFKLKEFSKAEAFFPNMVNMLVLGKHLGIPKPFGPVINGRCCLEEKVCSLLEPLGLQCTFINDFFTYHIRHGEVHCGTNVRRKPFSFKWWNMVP

Going from `COc1cc(C(=O)N2CC3CCC2[C@@H]3N)cc2nc(-c3cc4ccccc4n3CC3CC3)n(CC3CCN(c4ncccn4)C3)c12` (stereo in doubt) [Example 228, (1R,4R,7R)-2-{2-[1-(cyclopropylmethyl)-1H-indol-2-yl]-7-methoxy-1-{[(3S)-1-(pyrimidin-2-yl)pyrrolidin-3-yl]methyl}-1H-1,3-benzodiazole-5-carbonyl}-2-azabicyclo[2.2.1]heptan-7-amine] to `COc1cc(C(=O)N2CC3CCC2[C@@H]3N)cc2nc(-c3cc4ccccc4n3CC3CC3)n(CC3CN(C(=O)c4ncccn4)C3)c12` (stereo partly drawn) [Example 446, (7R)-2-{2-[1-(cyclopropylmethyl)-1H-indol-2-yl]-7-methoxy-1-{[1-(pyrimidine-2-carbonyl)azetidin-3-yl]methyl}-1H-1,3-benzodiazole-5-carbonyl}-2-azabicyclo[2.2.1]heptan-7-amine], the IC50 falls from 99 nM to 43 nM (2.3-fold).

Compared with `COc1cc(C(=O)N2CC3CCC2[C@@H]3N)cc2nc(-c3cc4ccccc4n3CC(F)F)n(Cc3cnn(C)c3)c12` (stereo partly drawn) [Example 502, (7R)-2-{2-[1-(2,2-difluoroethyl)-1H-indol-2-yl]-7-methoxy-1-[(1-methyl-1H-pyrazol-4-yl)methyl]-1H-1,3-benzodiazole-5-carbonyl}-2-azabicyclo[2.2.1]heptan-7-amine], `COc1cc(C(=O)N2C[C@H]3CC[C@@H]2[C@@H]3N)cc2nc(-c3cc4ccccc4n3CC3CC3)n(CC3CN(C(=O)c4cnn(C)c4)C3)c12` [Example 155, (1R,4R,7R)-2-{2-[1-(cyclopropylmethyl)-1H-indol-2-yl]-7-methoxy-1-{[1-(1-methyl-1H-pyrazole-4-carbonyl)azetidin-3-yl]methyl}-1H-1,3-benzodiazole-5-carbonyl}-2-azabicyclo[2.2.1]heptan-7-amine] is 6.6-fold lower in IC50: 146 nM for the first, 22 nM for the second. The second is the more potent here.

`COc1cc(C(=O)N2C[C@H](N)C[C@@H](F)C2)cc2nc(-c3cc4cccnc4n3CC3CC3)n(Cc3cnn(-c4cncc(F)c4)c3)c12` [Example 406, (3R,5R)-1-{2-[1-(cyclopropylmethyl)-1H-pyrrolo[2,3-b]pyridin-2-yl]-1-{[1-(5-fluoropyridin-3-yl)-1H-pyrazol-4-yl]methyl}-7-methoxy-1H-1,3-benzodiazole-5-carbonyl}-5-fluoropiperidin-3-amine] and `COc1cc(C(=O)N2CC3CCC2[C@@H]3N)cc2nc(-c3cc4cccnc4n3CC3CC3)n(Cc3cnn(-c4cccnc4)c3)c12` (stereo partly drawn) [Example 395, (7R)-2-{2-[1-(cyclopropylmethyl)-1H-pyrrolo[2,3-b]pyridin-2-yl]-7-methoxy-1-{[1-(pyridin-3-yl)-1H-pyrazol-4-yl]methyl}-1H-1,3-benzodiazole-5-carbonyl}-2-azabicyclo[2.2.1]heptan-7-amine] are within 1.5-fold of each other in IC50: 69 nM for the first, 50 nM for the second.

Going from `COc1cc(C(=O)N2C[C@H]3CC[C@@H]2[C@@H]3N)cc2nc(-c3cc4ccc(Cl)cc4n3CC3CC3)n(CC3CN(c4ccnc(C(N)=O)n4)C3)c12` [Example 8, 4-[3-({5-[(1R,4R,7R)-7-amino-2-azabicyclo[2.2.1]heptane-2-carbonyl]-2-[6-chloro-1-(cyclopropylmethyl)-1H-indol-2-yl]-7-methoxy-1H-1,3-benzodiazol-1-yl}methyl)azetidin-1-yl]pyrimidine-2-carboxamide] to `COc1cc(C(=O)N2C[C@H]3CC[C@@H]2[C@@H]3N)cc2nc(-c3cc4cccnc4n3CC3CC3)n(CC3CN(C(=O)c4ccnc(Cl)n4)C3)c12` [Example 126, (1R,4R,7R)-2-(1-{[1-(2-chloropyrimidine-4-carbonyl)azetidin-3-yl]methyl}-2-[1-(cyclopropylmethyl)-1H-pyrrolo[2,3-b]pyridin-2-yl]-7-methoxy-1H-1,3-benzodiazole-5-carbonyl)-2-azabicyclo[2.2.1]heptan-7-amine], the IC50 rises from 18 nM to 108 nM (6-fold). The first is the more potent here.

First: COc1cc(C(=O)N2C[C@H]3CC[C@@H]2[C@@H]3N)cc2nc(-c3cc4ccccc4n3CC3CC3)n(Cc3cnn(Cc4ccccc4)c3)c12 [Example 259, (1R,4R,7R)-2-{1-[(1-benzyl-1H-pyrazol-4-yl)methyl]-2-[1-(cyclopropylmethyl)-1H-indol-2-yl]-7-methoxy-1H-1,3-benzodiazole-5-carbonyl}-2-azabicyclo[2.2.1]heptan-7-amine]
Second: COc1cc(C(=O)N2C[C@H]3CC[C@@H]2[C@@H]3N)cc2nc(-c3cc4ccccc4n3CC3CC3)n(CC3CN(C(=O)c4ccccc4F)C3)c12 [Example 164, (1R,4R,7R)-2-{2-[1-(cyclopropylmethyl)-1H-indol-2-yl]-1-{[1-(2-fluorobenzoyl)azetidin-3-yl]methyl}-7-methoxy-1H-1,3-benzodiazole-5-carbonyl}-2-azabicyclo[2.2.1]heptan-7-amine]
The IC50 of the first is 1.7-fold higher: 44 nM for the first, 26 nM for the second.

Going from `COc1cc(C(=O)N2C[C@H]3CC[C@@H]2[C@@H]3N)cc2nc(-c3cc4ccccc4n3CC3CC3)n(CCN3CCNC3=O)c12` [Example 279, 1-(2-{5-[(1R,4R,7R)-7-amino-2-azabicyclo[2.2.1]heptane-2-carbonyl]-2-[1-(cyclopropylmethyl)-1H-indol-2-yl]-7-methoxy-benzodiazol-1-yl}ethyl)imidazolidin-2-one] to `COc1cc(C(=O)N2C[C@H]3CC[C@@H]2[C@@H]3N)cc2nc(-c3cc4ccccc4n3CC3CC3)n(CC3CN(C(=O)c4nnn(C)n4)C3)c12` [Example 142, (1R,4R,7R)-2-{2-[1-(cyclopropylmethyl)-1H-indol-2-yl]-7-methoxy-1-{[1-(2-methyl-2H-1,2,3,4-tetrazole-5-carbonyl)azetidin-3-yl]methyl}-1H-1,3-benzodiazole-5-carbonyl}-2-azabicyclo[2.2.1]heptan-7-amine], the IC50 falls from 491 nM to 14 nM (35-fold).

Going from `N[C@@H]1C2CCC1N(C(=O)c1cc(F)c3c(c1)nc(-c1cc4ccccc4n1CC1CC1)n3CC1CN(C(=O)c3ccccc3)C1)C2` (stereo partly drawn) [Example 136, (1R,4R,7R)-2-{1-[(1-benozylazetidin-3-yl)methyl]-2-[1-(cyclopropylmethyl)-1H-indol-2-yl]-7-fluoro-1H-1,3-benzodiazole-5-carbonyl}-2-azabicyclo[2.2.1]heptan-7-amine] to `COc1cc(C(=O)N2C[C@H]3CC[C@@H]2[C@@H]3N)cc2nc(-c3cc4cccnc4n3CC3CC3)n(CC3CN(C(=O)c4cc[nH]c(=O)c4)C3)c12` [Example 182, 4-[3-({5-[(1R,4R,7R)-7-amino-2-azabicyclo[2.2.1]heptane-2-carbonyl]-2-[1-(cyclopropylmethyl)-1H-pyrrolo[2,3-b]pyridin-2-yl]-7-methoxy-1H-1,3-benzodiazol-1-yl}methyl)azetidine-1-carbonyl]-1,2-dihydropyridin-2-one], the IC50 rises from 11 nM to 204 nM (19-fold). The first is the more potent here.

First: COc1cc(C(=O)N2C[C@H](N)C[C@@H](F)C2)cc2nc(-c3cc4ccccc4n3CC3CC3)n(Cc3ccncc3)c12 [Example 287, (3R,5R)-1-{2-[1-(cyclopropylmethyl)-1H-indol-2-yl]-7-methoxy-1-[(pyridin-4-yl)methyl]-1H-1,3-benzodiazole-5-carbonyl}-5-fluoropiperidin-3-amine]
Second: COc1cc(C(=O)N2C[C@H](N)C[C@@H](F)C2)cc2nc(-c3cc4cccnc4n3CC3CC3)n(CC3(F)CN(C(=O)c4ccccc4)C3)c12 [Example 468, (3R,5R)-1-{1-[(1-benzoyl-3-fluoroazetidin-3-yl)methyl]-2-[1-(cyclopropylmethyl)-1H-pyrrolo[2,3-b]pyridin-2-yl]-7-methoxy-1H-1,3-benzodiazole-5-carbonyl}-5-fluoropiperidin-3-amine]
The IC50 of the first is 12-fold higher: 1230 nM for the first, 99 nM for the second.

`COc1cc(C(=O)N2C[C@H]3CC[C@@H]2[C@@H]3N)cc2nc(-c3cc4cccnc4n3CC3CC3)n(C3CNC3)c12` [Example 307, (1R,4R,7R)-2-[1-(azetidin-3-yl)-2-[1-(cyclopropylmethyl)-1H-pyrrolo[2,3-b]pyridin-2-yl]-7-methoxy-1H-1,3-benzodiazole-5-carbonyl]-2-azabicyclo[2.2.1]heptan-7-amine] and `COc1cc(C(=O)N2C[C@H]3CC[C@@H]2[C@@H]3N)cc2nc(-c3cc4cccnc4n3CC3CC3)n(C3CCN(C(=O)c4cnc(C#N)nc4)CC3)c12` [Example 229, 5-(4-{5-[(1R,4R,7R)-7-amino-2-azabicyclo[2.2.1]heptane-2-carbonyl]-2-[1-(cyclopropylmethyl)-1H-pyrrolo[2,3-b]pyridin-2-yl]-7-methoxy-1H-1,3-benzodiazol-1-yl}piperidine-1-carbonyl)pyrimidine-2-carbonitrile] are within 1.5-fold of each other in IC50: 297 nM for the first, 219 nM for the second.

`COc1cc(C(=O)N2C[C@H]3CC[C@@H]2[C@@H]3N)cc2nc(-c3cc4ccccc4n3CC3CC3)n(CC3CN(c4cncnc4C#N)C3)c12` [Example 19, 5-[3-({5-[(1R,4R,7R)-7-amino-2-azabicyclo[2.2.1]heptane-2-carbonyl]-2-[1-(cyclopropylmethyl)-1H-indol-2-yl]-7-methoxy-1H-1,3-benzodiazol-1-yl}methyl)azetidin-1-yl]pyrimidine-4-carbonitrile] and `COc1cc(C(=O)N2C[C@H]3CC[C@@H]2[C@@H]3N)cc2nc(-c3cc4ccccc4n3CC3CC3)n(C[C@H]3CCN(c4ccnc(C5CC5)n4)C3)c12` [Example 227, (1R,4R,7R)-2-{2-[1-(cyclopropylmethyl)-1H-indo1-2-yl]-1-{[(3S)-1-(2-cyclopropylpyrimidin-4-yl)pyrrolidin-3-yl]methyl}-7-methoxy-1H-1,3-benzodiazole-5-carbonyl}-2-azabicyclo[2.2.1]heptan-7-amine] are within 1.5-fold of each other in IC50: 55 nM for the first, 41 nM for the second.

Molecule `COc1cc(C(=O)N2C[C@H]3CC[C@@H]2[C@@H]3N)cc2nc(-c3cc4cccnc4n3CC3CC3)n(CC3CCN(C(=O)c4ccnc(C)n4)CC3)c12` [Example 199, (1R,4R,7R)-2-{2-[1-(cyclopropylmethyl)-1H-pyrrolo[2,3-b]pyridin-2-yl]-7-methoxy-1-{[1-(2-methylpyrimidine-4-carbonyl)piperidin-4-yl]methyl}-1H-1,3-benzodiazole-5-carbonyl}-2-azabicyclo[2.2.1]heptan-7-amine] has an IC50 of 162 nM.
